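1) Cells in 96-well plates. 2) Compound, 48 h, 5 concentrations. 3) Linear interpolation between surrounding doses. 4) Unreached endpoint = highest concentration. The concentration for 50% growth inhibition is given as GI50.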 The source made the active and inactive calls. Rule as the data show it: active = GI50 up to about 1.1 µM and inactive = higher.
Assays:
Assay in all cases: inhibition of tumour cell growth, NCI panel, 48 h
OVCAR-8 = test system: OVCAR-8
SK-MEL-5 = test system: SK-MEL-5
NCI-H226 = test system: NCI-H226
M19-MEL = test system: M19-MEL
HL-60 = test system: HL-60
SN12C = test system: SN12C
SK-MEL-2 = test system: SK-MEL-2
A498 = test system: A498
HCT-15 = test system: HCT-15
SF-268 = test system: SF-268
MOLT-4 = test system: MOLT-4
SNB-19 = test system: SNB-19
NCI-H23 = test system: NCI-H23
KM12 = test system: KM12
HOP-18 = test system: HOP-18
HCT-116 = test system: HCT-116
HOP-62 = test system: HOP-62
OVCAR-4 = test system: OVCAR-4
M14 = test system: M14
SNB-75 = test system: SNB-75
HCC 2998 = test system: HCC 2998
DMS-114 = test system: DMS-114
COLO 205 = test system: COLO 205
786-0 = test system: 786-0
ACHN = test system: ACHN
SW-620 = test system: SW-620
RPMI-8226 = test system: RPMI-8226
OVCAR-5 = test system: OVCAR-5
UACC-62 = test system: UACC-62
LOX IMVI = test system: LOX IMVI
Malme-3M = test system: Malme-3M
K562 = test system: K562
U-251 = test system: U-251
DLD-1 = test system: DLD-1
NCI-H522 = test system: NCI-H522
CAKI-1 = test system: CAKI-1
TK-10 = test system: TK-10
HOP-92 = test system: HOP-92
XF498 = test system: XF498
A549 = test system: A549
KM-20L2 = test system: KM-20L2
HT-29 = test system: HT-29
OVCAR-3 = test system: OVCAR-3
UACC-257 = test system: UACC-257
CCRF-CEM = test system: CCRF-CEM
DMS-273 = test system: DMS-273
SF-295 = test system: SF-295
NCI-H460 = test system: NCI-H460
UO-31 = test system: UO-31
RXF 393 = test system: RXF 393
LXFL 529 = test system: LXFL 529
EKVX = test system: EKVX
SK-OV-3 = test system: SK-OV-3
SF-539 = test system: SF-539
SK-MEL-28 = test system: SK-MEL-28
IGROV-1 = test system: IGROV-1
SR = test system: SR
SNB-78 = test system: SNB-78
MCF7 = test system: MCF7
NCI/ADR-RES = test system: NCI/ADR-RES

`C[N+](C)(Cc1ccc(NC(=O)CCCC(=O)ON2C(=O)CCC2=O)cc1)c1ccccc1` was tested, and the GI50 (OVCAR-8) was < 10 nM (active), the GI50 (SK-MEL-5) was < 10 nM (active) and the GI50 (NCI-H226) was < 10 nM (active). The GI50 (M19-MEL) was < 10 nM (active), the GI50 (HL-60) was < 10 nM (active) and the GI50 (SN12C) was < 10 nM (active). The GI50 (SK-MEL-2) was 23.4 nM (active), the GI50 (A498) was < 10 nM (active) and the GI50 (HCT-15) was greater than 1000 nM. For the same molecule, the GI50 (SF-268) was < 10 nM (active), the GI50 (MOLT-4) was < 10 nM (active) and the GI50 (SNB-19) was < 10 nM (active). For the same molecule, the GI50 (NCI-H23) was < 10 nM (active), the GI50 (KM12) was < 10 nM (active) and the GI50 (HOP-18) was < 10 nM (active). The GI50 (HCT-116) was < 10 nM (active), the GI50 (HOP-62) was < 10 nM (active) and the GI50 (OVCAR-4) was < 10 nM (active). For the same molecule, the GI50 (M14) was < 10 nM (active), the GI50 (SNB-75) was < 10 nM (active) and the GI50 (HCC 2998) was < 10 nM (active). For the same molecule, the GI50 (DMS-114) was > 1000 nM (active), the GI50 (COLO 205) was < 10 nM (active) and the GI50 (786-0) was < 10 nM (active). For the same molecule, the GI50 (ACHN) was < 10 nM (active), the GI50 (SW-620) was < 10 nM (active) and the GI50 (RPMI-8226) was < 10 nM (active). For the same molecule, the GI50 (OVCAR-5) was < 10 nM (active), the GI50 (UACC-62) was < 10 nM (active) and the GI50 (LOX IMVI) was < 10 nM (active). The GI50 (Malme-3M) was < 10 nM (active), the GI50 (K562) was < 10 nM (active) and the GI50 (U-251) was < 10 nM (active). For the same molecule, the GI50 (DLD-1) was < 10 nM (active), the GI50 (NCI-H522) was < 10 nM (active) and the GI50 (CAKI-1) was < 10 nM (active). The GI50 (TK-10) was < 10 nM (active), the GI50 (HOP-92) was < 10 nM (active) and the GI50 (XF498) was > 1000 nM (active). For the same molecule, the GI50 (A549) was < 10 nM (active), the GI50 (KM-20L2) was < 10 nM (active) and the GI50 (HT-29) was < 10 nM (active). For the same molecule, the GI50 (OVCAR-3) was < 10 nM (active), the GI50 (UACC-257) was < 10 nM (active) and the GI50 (CCRF-CEM) was < 10 nM (active). For the same molecule, the GI50 (DMS-273) was < 10 nM (active), the GI50 (SF-295) was < 10 nM (active) and the GI50 (NCI-H460) was > 1000 nM (active). The GI50 (UO-31) was < 10 nM (active), the GI50 (RXF 393) was > 1000 nM (active) and the GI50 (LXFL 529) was < 10 nM (active). The GI50 (EKVX) was < 10 nM (active), the GI50 (SK-OV-3) was < 10 nM (active) and the GI50 (SF-539) was < 10 nM (active). For the same molecule, the GI50 (SK-MEL-28) was < 10 nM (active), the GI50 (IGROV-1) was < 10 nM (active) and the GI50 (SR) was < 10 nM (active).
`CC(=O)OCC1OC(n2cc(F)c(=O)[nH]c2=O)C(NC(=O)OCc2ccccc2)C(OC(C)=O)C1OC(C)=O` (stereo not given) was tested, and the GI50 (OVCAR-8) was > 100000 nM (inactive), the GI50 (SK-MEL-5) was > 100000 nM (inactive) and the GI50 (NCI-H226) was > 100000 nM (inactive). For the same molecule, the GI50 (M19-MEL) was > 100000 nM (inactive), the GI50 (HL-60) was > 100000 nM (inactive) and the GI50 (SN12C) was > 100000 nM (inactive). The GI50 (SK-MEL-2) was > 100000 nM (inactive), the GI50 (A498) was > 100000 nM (inactive) and the GI50 (HCT-15) was greater than 100000 nM. The GI50 (SF-268) was > 100000 nM (inactive), the GI50 (MOLT-4) was > 100000 nM (inactive) and the GI50 (SNB-19) was > 100000 nM (inactive). The GI50 (NCI-H23) was > 100000 nM (inactive), the GI50 (KM12) was > 100000 nM (inactive) and the GI50 (HOP-18) was > 100000 nM (inactive). For the same molecule, the GI50 (HCT-116) was > 100000 nM (inactive), the GI50 (HOP-62) was > 100000 nM (inactive) and the GI50 (OVCAR-4) was > 100000 nM (inactive). For the same molecule, the GI50 (SNB-75) was > 100000 nM (inactive), the GI50 (HCC 2998) was > 100000 nM (inactive) and the GI50 (DMS-114) was > 100000 nM (inactive). For the same molecule, the GI50 (SW-620) was > 100000 nM (inactive), the GI50 (RPMI-8226) was > 100000 nM (inactive) and the GI50 (OVCAR-5) was > 100000 nM (inactive). For the same molecule, the GI50 (UACC-62) was > 100000 nM (inactive), the GI50 (LOX IMVI) was > 100000 nM (inactive) and the GI50 (Malme-3M) was > 100000 nM (inactive). For the same molecule, the GI50 (SNB-78) was > 100000 nM (inactive), the GI50 (K562) was > 100000 nM (inactive) and the GI50 (U-251) was > 100000 nM (inactive). For the same molecule, the GI50 (MCF7) was > 100000 nM (inactive), the GI50 (NCI/ADR-RES) was > 100000 nM (inactive) and the GI50 (DLD-1) was > 100000 nM (inactive). For the same molecule, the GI50 (NCI-H522) was > 95300 nM (inactive), the GI50 (CAKI-1) was > 100000 nM (inactive) and the GI50 (HOP-92) was > 100000 nM (inactive). The GI50 (XF498) was > 100000 nM (inactive), the GI50 (A549) was > 100000 nM (inactive) and the GI50 (KM-20L2) was > 100000 nM (inactive). For the same molecule, the GI50 (HT-29) was > 100000 nM (inactive), the GI50 (OVCAR-3) was > 100000 nM (inactive) and the GI50 (UACC-257) was > 100000 nM (inactive). For the same molecule, the GI50 (CCRF-CEM) was > 100000 nM (inactive), the GI50 (DMS-273) was > 100000 nM (inactive) and the GI50 (SF-295) was > 100000 nM (inactive). The GI50 (NCI-H460) was > 100000 nM (inactive), the GI50 (UO-31) was > 100000 nM (inactive) and the GI50 (RXF 393) was > 100000 nM (inactive). For the same molecule, the GI50 (EKVX) was > 100000 nM (inactive), the GI50 (SK-OV-3) was > 100000 nM (inactive) and the GI50 (SF-539) was > 100000 nM (inactive). For the same molecule, the GI50 (SK-MEL-28) was > 100000 nM (inactive) and the GI50 (IGROV-1) was > 100000 nM (inactive).
